# Patent US8372840B2, “Potassium channel blockers” (Xention Limited, priority 2008, dated 2013)
# Legend:
# [1] = target: T1, human Kv1.3 (Homo sapiens, UniProt P22001); assay: Kv1.3 Autopatch Electrophysiology (whole cell patch-clamp, stably transfected CHO cells); format: cell-based; details: compound 1 μM, step to +30 mV for 500 ms, inhibition of total charge relative to control, room temperature; for inhibition at 1 µM: CHO, read-out: hKv1.3 % inh.
# T1 construct: expressed in transfected cells; host or cells: stably transfected cells grown in medium for CHO cells
# Description: Cells stably transfected with cDNA for human Kv1.3 (in pcDNA3.1) were grown in Ex-cell 302 serum-free medium for CHO cells, supplemented with 10 μl/ml [100×] glutamine, 500 μg/ml G418 ([…]), and 1% HT supplement (50×, hypoxanthine and thymidine). Compounds were tested on these cells using the AutoPatch technology in whole cell mode.
# The external bathing solution contained (in mM): 150 NaCl, 10 KCl, 1 MgCl2, 3 CaCl2, 10 HEPES, pH 7.4 with NaOH. Patch pipettes were filled with an electrode solution of composition (in mM): 100 K-Gluconate, 20 KCl, 1 MgCl2, 1 CaCl2, 10 HEPES, 11 EGTA, 5 ATP-Na2, 2 Glutathione pH 7.2 with KOH.
# Compounds were dissolved in DMSO (100%) and made up in the external bather at a concentration of 1 μM immediately prior to use. All experiments were conducted at room temperature.
# A cell suspension (10 ml), with a density of 6×10^6 cells, was aliquoted into a 15 ml centrifuge tube and stored at 4° C. before use. Prior to use a tube was taken and centrifuged at 1000 rpm for 4 mins at room temperature. The supernatant was then discarded, leaving a cell pellet at the bottom of the tube. The pellet was then resuspended using 1 ml of cold (4° C.), filtered (0.22 μm), 0.05% BSA/bather solution (0.05 g BSA/100 ml bather). The bottom of the tube was manually agitated followed by gentle tituration. The cell suspension was then placed in the AutoPatch™ temperature controlled cell-hotel at 14° C. and regularly titurated.
# A length of Teflon capillary tubing was dipped into the cell suspension solution, and a column of fluid was taken up by negative pressure. The column of fluid was in electrically connectivity with a Ag/AgCl reference electrode. Borosilicate glass patch pipettes (from 1.5 mm OD, thin-walled filamented, GC150-TF capillary glass, Harvard) were pulled using a DMZ pipette puller (Zeitz Instruments), and were back-filled using the internal pipette solution, being careful that no bubbles remained at the tip or in the body of the pipette. Patch pipettes typically had resistances of 2.5-3.5 MΩ. Once filled, the pipette tip and a proportion of the shaft (˜15 mm) were dipped into Sigmacote (Sigma). The recording pipettes were placed in a multiwell array and mounted on the AutoPatch™ machine. Automated patch-clamping and drug-application was initiated by the operator, but thereafter AutoPatch.exe continued the experiment providing that pre-set conditions and criteria were satisfied.
# Whole cell patch-clamp recordings were made using the AutoPatch™ rig, which incorporated an EPC9 or EPC10 amplifier (HEKA, Germany) under control of Pulse software (v8.54 or v8.76, HEKA, Germany), a cell applicator, automated drug application system (DAS), valve controller (VF1) and a suction device all at room temperature. This equipment was completely under the control of AutoPatch.exe and operator intervention was only made when there was a requirement to refill the bather reservoirs or to prevent the loss of a cell due to a technical error.
# Qualification stages prior to perfusion and drug application ensured that the observed current met the criteria for the experiment. Cells were continuously perfused with external solution at a flow rate of ˜2 ml/minute.
# Electrophysiology voltage-step protocols and analysis of data was performed as follows. Data were sampled at 5 kHz, and filtered with a −3 dB bandwidth of 2.5 kHz. Cells were held at a voltage of −80 mV. Currents were evoked by a voltage step to +30 mV for 500 ms in duration applied every 15 s. Online analysis of the hKv1.3 current during the application of compounds was performed by the Pulse (v8.54 or v8.76, HEKA, Germany), Excel (Microsoft, USA) and AutoPatch™ software, with the total charge measured during the whole of voltage step Inhibition of charge movement in the presence of drug was calculated relative to control.
# [2] = target: hKv1.5 (Homo sapiens, UniProt P22460); assay: Kv1.5 Autopatch Electrophysiology (whole cell patch-clamp); format: cell-based; details: compound 1 μM, step to 0 mV for 1000 ms, total charge, room temperature (22-24° C.); for inhibition at 1 µM: read-out: hKv1.5 % inh.
# Description: The external bathing solution contained (in mM): 150 NaCl, 10 KCl, […], 3 MgCl2, 1 CaCl2, 10 HEPES, pH 7.4. Patch pipettes were filled with an electrode solution of composition (in mM): 160 KCl, 0.5 MgCl2, 10 HEPES, 1 EGTA, pH 7.4 with KOH.
# Compounds were dissolved in DMSO (100%) and made up in the external bather at a concentration of 1 μM. All experiments were conducted at room temperature (22-24° C.).
# A cell suspension (10 ml), with a density of 100,000 cells/ml, was aliquoted into a 15 ml centrifuge tube and transferred to an incubator (37° C., 5% CO2) for approximately one hour before use. Following 60 min incubation, a tube was taken and centrifuged at 1000 rpm for 4 mins at room temperature. 9.5 ml supernatant was thence discarded, leaving a cell pellet at the bottom of the tube. The pellet was then resuspended using 100 μl of cold (4° C.), filtered (0.22 μm), 0.2% BSA/bather solution (0.02 g BSA/10 ml bather). The bottom of the tube was manually agitated gently until the solution became cloudy with cells. The 100 μl cell resuspension solution was then stored on the bench at 4° C. (using a Peltier-based temperature control device) until used.
# A length of capillary glass (1B150E-4, WPI) was dipped into the cell suspension solution, such that ˜3 cm column of fluid was taken up by capillary action. A Ag/AgCl wire was dropped into the non-dipped end of the capillary also. The outside of the solution-filled end of the capillary was then dried and the capillary was loaded into the AutoPatch™
# Borosilicate glass patch pipettes (from 1.5 mm OD, thin-walled filamented, GC150-TF capillary glass, Harvard) were pulled using a DMZ pipette puller (Zeitz Instruments), and were back-filled using the internal pipette solution, being careful that no bubbles remain at the tip or in the body of the pipette. Patch pipettes typically had resistances of 2.3-3.5 MΩ. Once filled, the pipette tip and a proportion of the shaft (˜15 mm) were dipped into Sigmacote (Sigma). The recording pipette was then loaded into the AutoPatch™. Automated patch-clamping was initiated by the operator, but thereafter AutoPatch.exe continued the experiment providing that pre-set conditions and criteria were satisfied.
# Whole cell patch-clamp recordings were made using the AutoPatch™ rig, which incorporated an EPC9 amplifier (HEKA, Germany) under control of Pulse software (v8.54, HEKA, Germany), a motion controller with 2 translators (Newport, UK), valve controller (VF1) and a c-level suction device all at room temperature (22-24° C.). This equipment was completely under the control of AutoPatch.exe and operator intervention was only made when there was a requirement to refill the drug reservoirs or to prevent the loss of a cell due to a technical error. Cells with an Rseries greater than 18 MΩ were discounted from the experiment.
# Qualification stages prior to perfusion and drug application ensured that the observed current met the criteria for the experiment. Only those cells with an IK>500 pA were used for experiments. Cells were continuously perfused with external solution at a flow rate of 1.8-2 ml/minute. […] Online analysis of the hKv1.5 current during the application of compounds was performed by the AutoPatch™ software. Voltage-step protocols and analysis of data was performed as described for conventional electrophysiology.
# Electrophysiology voltage-step protocols and analysis of data was performed as follows. Data was sampled at 5 kHz, and filtered with a −3 dB bandwidth of 2.5 kHz. Cells were held at a voltage of −80 mV. Currents were evoked to a voltage step for 1000 ms in duration at 0 mV every 5 s. Currents were analysed using Pulsefit software (v8.54, HEKA, Germany), with the total charge measured during the whole of the voltage step. All other plots were produced using Igor Pro (WaveMetrics).
# hKv1.5, sequence (P22460 whole entry): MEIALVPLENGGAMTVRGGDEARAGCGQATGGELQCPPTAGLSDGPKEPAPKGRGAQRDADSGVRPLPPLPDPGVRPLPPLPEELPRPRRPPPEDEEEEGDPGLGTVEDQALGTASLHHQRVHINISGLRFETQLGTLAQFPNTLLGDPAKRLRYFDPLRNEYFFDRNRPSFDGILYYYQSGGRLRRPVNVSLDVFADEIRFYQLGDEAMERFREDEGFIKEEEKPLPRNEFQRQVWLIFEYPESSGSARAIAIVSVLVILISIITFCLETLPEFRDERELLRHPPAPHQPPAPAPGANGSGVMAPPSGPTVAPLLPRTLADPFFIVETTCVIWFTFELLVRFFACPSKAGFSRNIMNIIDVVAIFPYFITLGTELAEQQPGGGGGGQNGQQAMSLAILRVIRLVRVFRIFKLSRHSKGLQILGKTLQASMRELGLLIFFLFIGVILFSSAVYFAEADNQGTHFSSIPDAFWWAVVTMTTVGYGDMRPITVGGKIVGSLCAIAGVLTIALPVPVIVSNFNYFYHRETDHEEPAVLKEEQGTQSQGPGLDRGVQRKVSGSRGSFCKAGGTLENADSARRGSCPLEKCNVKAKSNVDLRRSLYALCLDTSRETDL
# T1 sequence (P22001 whole entry): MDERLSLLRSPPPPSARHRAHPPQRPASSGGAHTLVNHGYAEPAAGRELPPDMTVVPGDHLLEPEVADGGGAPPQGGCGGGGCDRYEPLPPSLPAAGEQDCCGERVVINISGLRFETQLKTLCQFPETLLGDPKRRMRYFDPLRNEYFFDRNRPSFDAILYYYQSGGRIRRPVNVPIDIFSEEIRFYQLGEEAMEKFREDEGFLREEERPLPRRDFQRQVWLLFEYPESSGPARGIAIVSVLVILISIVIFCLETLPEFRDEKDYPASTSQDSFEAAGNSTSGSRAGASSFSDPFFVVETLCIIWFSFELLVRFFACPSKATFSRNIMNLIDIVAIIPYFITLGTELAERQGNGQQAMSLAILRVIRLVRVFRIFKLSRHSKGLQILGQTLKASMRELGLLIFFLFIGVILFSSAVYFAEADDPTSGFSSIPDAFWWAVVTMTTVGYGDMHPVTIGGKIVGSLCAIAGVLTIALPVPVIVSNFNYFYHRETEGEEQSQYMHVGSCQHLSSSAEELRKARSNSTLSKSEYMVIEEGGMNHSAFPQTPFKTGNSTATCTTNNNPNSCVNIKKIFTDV
inhibition at 1 µM [1] [%],inhibition at 1 µM [2] [%],Molecule,hKv1.3 % inh. [1] [%],hKv1.5 % inh. [2] [%]
94,79,"Cn1ccc(S(=O)(=O)N(Cc2ccc(Cl)cc2)c2cccc(OCC(=O)NC3CCC3)c2)n1 [Example 50, 2-{3-[(4-Chloro-benzyl)-(1-methyl-1H-pyrazole-3-sulfonyl)-amino]-phenoxy}-N-cyclobutyl-acetamide]",,
83,72,"Cn1ccc(S(=O)(=O)N(Cc2ccc(Cl)cc2)c2cccc(OCC(=O)NC3CC3)c2)n1 [Example 51, 2-{3-[(4-Chloro-benzyl)-(1-methyl-1H-pyrazole-3-sulfonyl)-amino]-phenoxy}-N-cyclopropyl-acetamide]",,
,,N-(4-Chloro-benzyl)-3-cyano-4-fluoro-N-[3-(2-oxo-imidazolidin-1-yl)-phenyl]-benzenesulfonamide [Example 45],100,95
,,N-Benzyl-3-cyano-4-fluoro-N-[3-(2-oxo-imidazolidin-1-yl)-phenyl]-benzenesulfonamide [Example 44],90,72
,,N-[3-(Benzenesulfonyl-benzyl-amino)-phenyl]-acetamide [Example 10],50,28
,,Pyridine-3-sulfonic acid (4-chloro-benzyl)-[3-(2-oxo-imidazolidin-1-ylbenzyl)-[3-(2-oxo-imidazolidin-1-yl)-phenyl]-amide [Example 48],96,89
,,Pyridine-3-sulfonic acid benzyl-[3-(2-oxo-imidazolidin-1-yl)-phenyl]-a(2-oxo-imidazolidin-1-yl)-phenyl]-amide [Example 47],74,51
,,Pyridine-3-sulfonic acid benzyl-[3-(4-phenyl-piperazin-1-yl)-phenyl]-amide [Example 16],97,91
